Where a name gives a salt, the structure may show the parent alone.
System: Eimeria tenella GD strains
Experiment: Anticoccidial dose research in chickens infected with Eimeria tenella GD (Embodiment 2)
Type: in vivo
Design: oocyst value: scale not given here
Conditions: for number of oocysts in cecum / average weight gain: 7th day; for lesion value: cecum, 7 days after infecting, scale 0-40; for survival rate / average weight gain / bloody feces scoring: chickens; for bloody feces scoring: 5 days after infecting, score 0-4; for oocyst value: converted per Table 2; for relative weight gain rate: vs non-infected non-drug control
Excerpt: 1-day-old Lingnan yellow chickens, purchased from Poultry Research Unit, Bureau of Animal Husbandry, Guangdong Academy of Agricultural Sciences, bred under coccidium-free environment, and subjected to experiment after no coccidium oocyst is found in feces through microscopic examination when the chickens are 14 days old. Perfect compound feed for chickens: prepared by Huizhou Yuantai Feed Co. Ltd., and containing no antibacterial or anticoccidial additive.
Eimeria tenella GD strains, having no resistance to various anticoccidial drugs. Breeding and amplifying in chickens before the experiment, collecting fresh oocysts, sporulating, and preserving at 4° C. for later use.
Weighing the 14-day-old experiment chickens one by one, rejecting emaciated or overweighted chickens, selecting healthy chickens of which the individual body weight difference is within 20 g, and dividing to 9 groups with 20 chickens in each group. Groups 1 and 2 are respectively a non-drug-applied and non-coccidium-killed control group and a coccidium-infected and non-drug-applied control group, and Groups 3-9 are experiment groups applied with different doses of the fluoroethyl thiamine hydrochloride according to Table 1. Adding different doses of drugs to feeds and mixing uniformly on the day of experiment grouping, enabling the chickens to freely take in the feeds, and feeding the chickens until the experiment ends.
Except the non-coccidium-infected and non-drug-applied control group (Group 1), giving each experiment chicken in each experiment group with 2.5×10^5 eimeria tenella sporulated oocysts via the crop on the next day of the grouping day. During experiment, observing and recording the spirit, appetite, bloody feces situation, death count and the like of the chickens every day. Performing bloody feces scoring on the chickens in each group 5 days after infecting. On the 7th day, respectively weighing all the chickens in each group, then autopsying them, observing cecum lesions and counting the oocysts in the cecum.
2.3.1 Bloody feces scoring: according to the method in the references: 0 point, no bloody feces, 1 point, less than 25% of bloody feces; 2 points, 25%-50% of bloody feces; 3 points, 50%-75% of bloody feces; 4 points, more than 75% of bloody feces.
2.3.2 Weight gain: respectively weighing each chicken when the experiment starts and ends, and calculating the average weight gain and relative weight gain rate. The relative weight gain rate=(the average weight gain in the experiment groups/the average weight gain in the non-infected and non-drug-applied control group)×100%.
2.3.3 Survival rate: recording the number of dead chickens of each group, autopsying to determine the death cause, and calculating the survival rate. The survival rate=(the total number of the chickens in the experiment groups−the number of the chickens dying of coccidium infection during the experiment)/the total number of the chickens in the experiment groups×100%.
2.3.4 Lesion standard: killing the chickens 7 days after infecting, performing cecum lesion scoring according to the lesion scoring of Johnson and Reid (1970), and converting lesion points to lesion values.
lesion scoring (taking the serious side if the two sides of the cecum are inconsistent in lesion): 0 point, no macroscopic lesion; 1 point, a small amount of scattered petechiae on the cecum wall, no incrassation on the cecum wall, normal contents; 2 points, a large amount of lesion, obviously bloody contents in the cecum, slight incrassation on the cecum wall, normal contents; 3 points, a large a mount of blood or intestinal core (blood clot or gray caseous banana-shaped lumps) in the cecum, obvious incrassation on the cecum wall, a small amount of feces in the cecum; 4 points, cecum swelling caused by filling of a large amount of blood or intestinal core with or without feces in the intestinal core. Recording the dead chicken lesion as 4 points as well. […]

`CCc1ncc(C[n+]2csc(CCF)c2C)c(N)n1` [fluoroethyl thiamine hydrochloride, 3-[(4-amino-2-ethyl-5-pyrimidyl)-methylene]-5-(2-fluoroethyl)-4-methyl thiazole chloride hydrochloride] was tested, and the “anticoccidial index (ACI)” value (10 ppm in feed) was 136.7, the “number of oocysts in cecum” value (10 ppm in feed) was 2.965 ×10^6/chicken and the lesion value (10 ppm in feed) was 24.5. The survival rate (10 ppm in feed) was 90%, the average weight gain (10 ppm in feed) was 135.7 g/chicken and the bloody feces scoring (10 ppm in feed) was 2. For the same compound, the oocyst value (10 ppm in feed) was 10, the “relative weight gain rate” value (10 ppm in feed) was 81.2% and the “anticoccidial index (ACI)” value (25 ppm in feed) was 144.6. The “number of oocysts in cecum” value (25 ppm in feed) was 2.325 ×10^6/chicken, the lesion value (25 ppm in feed) was 18.8 and the survival rate (25 ppm in feed) was 90%. It also gave an average weight gain (25 ppm in feed) of 139.5 g/chicken, a bloody feces scoring (25 ppm in feed) of 2 and an oocyst value (25 ppm in feed) of 10. The “relative weight gain rate” value (25 ppm in feed) was 83.4%, the “anticoccidial index (ACI)” value (50 ppm in feed) was 165.5 and the “drug efficiency level judged from the anticoccidial index” value (50 ppm in feed) was “intermediate-efficiency anticoccidial drugs (intermediate-efficiency anticoccidial drugs if 160≦ACI<180)”. For the same compound, the “number of oocysts in cecum” value (50 ppm in feed) was 3.65 ×10^6/chicken, the lesion value (50 ppm in feed) was 11.2 and the survival rate (50 ppm in feed) was 100%. It also gave an average weight gain (50 ppm in feed) of 144.9 g/chicken, a bloody feces scoring (50 ppm in feed) of 1 and an oocyst value (50 ppm in feed) of 10. The “relative weight gain rate” value (50 ppm in feed) was 86.7%, the “anticoccidial index (ACI)” value (75 ppm in feed) was 176.4 and the “drug efficiency level judged from the anticoccidial index” value (75 ppm in feed) was “intermediate-efficiency anticoccidial drugs (intermediate-efficiency anticoccidial drugs if 160≦ACI<180)”. The “number of oocysts in cecum” value (75 ppm in feed) was 2.15 ×10^6/chicken, the lesion value (75 ppm in feed) was 8.5 and the survival rate (75 ppm in feed) was 100%. The average weight gain (75 ppm in feed) was 158.7 g/chicken, the bloody feces scoring (75 ppm in feed) was 0 and the oocyst value (75 ppm in feed) was 10. For the same compound, the “relative weight gain rate” value (75 ppm in feed) was 94.9%, the “anticoccidial index (ACI)” value (100 ppm in feed) was 195.9 and the “drug efficiency level judged from the anticoccidial index” value (100 ppm in feed) was “high-efficiency anticoccidial drugs (high-efficiency anticoccidial drugs if ACI≧180)”. The “number of oocysts in cecum” value (100 ppm in feed) was 0.47 ×10^6/chicken, the lesion value (100 ppm in feed) was 0 and the survival rate (100 ppm in feed) was 100%. The average weight gain (100 ppm in feed) was 162.0 g/chicken, the bloody feces scoring (100 ppm in feed) was 0 and the oocyst value (100 ppm in feed) was 1. The “relative weight gain rate” value (100 ppm in feed) was 96.9%, the “anticoccidial index (ACI)” value (150 ppm in feed) was 201.4 and the “drug efficiency level judged from the anticoccidial index” value (150 ppm in feed) was “high-efficiency anticoccidial drugs (high-efficiency anticoccidial drugs if ACI≧180)”. The “number of oocysts in cecum” value (150 ppm in feed) was 0.16 ×10^6/chicken, the lesion value (150 ppm in feed) was 0 and the survival rate (150 ppm in feed) was 100%. For the same compound, the average weight gain (150 ppm in feed) was 171.2 g/chicken, the bloody feces scoring (150 ppm in feed) was 0 and the oocyst value (150 ppm in feed) was 1. The “relative weight gain rate” value (150 ppm in feed) was 102.4%, the “anticoccidial index (ACI)” value (200 ppm in feed) was 200.8 and the “drug efficiency level judged from the anticoccidial index” value (200 ppm in feed) was “high-efficiency anticoccidial drugs (high-efficiency anticoccidial drugs if ACI≧180)”. The “number of oocysts in cecum” value (200 ppm in feed) was 0 ×10^6/chicken, the lesion value (200 ppm in feed) was 0 and the survival rate (200 ppm in feed) was 100%. The average weight gain (200 ppm in feed) was 168.5 g/chicken, the bloody feces scoring (200 ppm in feed) was 0 and the oocyst value (200 ppm in feed) was 0. For the same compound, the “relative weight gain rate” value (200 ppm in feed) was 100.8%.

From US9096581B2, “Fluoroethyl thiamine or salts thereof and application thereof in preparation of anticoccidial drugs” (GUANGZHOU ORIGMOL FEED-ADDITIVE CO., LTD, priority 2012, dated 2015)
